Results on 20 molecules are retold here after patent US8133884B2, “Compounds for the treatment of hepatitis C” (priority 2008, dated 2012).

T1 sequence (Q9WMX2 2420-2992): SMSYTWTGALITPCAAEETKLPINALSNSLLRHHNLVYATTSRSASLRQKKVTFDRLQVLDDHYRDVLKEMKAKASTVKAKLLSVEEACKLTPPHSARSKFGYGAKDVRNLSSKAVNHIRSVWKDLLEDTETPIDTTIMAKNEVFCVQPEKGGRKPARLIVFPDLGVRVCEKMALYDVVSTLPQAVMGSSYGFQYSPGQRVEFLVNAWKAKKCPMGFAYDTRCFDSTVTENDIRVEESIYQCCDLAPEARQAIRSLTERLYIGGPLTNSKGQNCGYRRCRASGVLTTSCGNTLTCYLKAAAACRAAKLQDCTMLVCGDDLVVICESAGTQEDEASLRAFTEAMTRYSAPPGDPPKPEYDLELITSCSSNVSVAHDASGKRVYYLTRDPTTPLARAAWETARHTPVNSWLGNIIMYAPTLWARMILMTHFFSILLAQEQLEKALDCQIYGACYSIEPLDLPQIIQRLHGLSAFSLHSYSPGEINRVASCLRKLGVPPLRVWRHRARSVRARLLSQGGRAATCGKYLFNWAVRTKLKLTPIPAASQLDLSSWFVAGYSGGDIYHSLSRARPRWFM

The first assay concerns the target T1, HCV NS5B (Hepatitis C virus genotype 1b, UniProt Q9WMX2).
T1 construct: The protein was expressed with an 18 amino acid C-terminal truncation to enhance the solubility; made in house; host or cells: E. coli BL21(DE3)
Kind of assay: Modified HCV NS5B RdRp enzyme assay (preincubation protocol). It is filed as biochemical. The following applies: class symbol. A digest of the protocol: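 C-terminally truncated (Δ18) genotype 1b NS5B from E. coli, 14 nM, added to compound first, then polyA template (0.2 nM), 3H-UTP (0.29 μM) and oligo-dT12 primer precaptured on streptavidin SPA beads (20 nM). Run 4 h at 30° C, pH 7.5, 2% DMSO; IC50 fitted from seven concentrations.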
Broadly, the IC50 is the midpoint of a concentration-inhibition curve. A low value points to greater potency in that assay. In the case of `COc1ccc2c(c1)C=C(c1c(C(=O)N3CC4CCC(C3)N4C)c(C)nn1C1CCC1)Cn1c-2c(C2CCCCC2)c2ccc(C(=O)NS(=O)(=O)C(C)C)cc21`, the IC50 lay in the range of 1.7 to 500 nM.
In turn, `COc1ccc2c(c1)C=C(c1c(C(=O)N3C[C@@H]4C[C@H]3CN4C)c(C)nn1C1CCC1)Cn1c-2c(C2CCCCC2)c2ccc(C(=O)NS(=O)(=O)C(C)C)cc21` showed a half-maximal inhibitory concentration (IC50) of 1.7 to 500 nM.
For `COc1ccc2c(c1)C=C(c1c(C(=O)N3C[C@@H]4C[C@H]3CN4CC3CC3)c(C)nn1C1CCC1)Cn1c-2c(C2CCCCC2)c2ccc(C(=O)NS(=O)(=O)C(C)C)cc21`, the IC50 lay within 1.7 to 500 nM.
The same measure, in the same setting: the figure for `CCN1C[C@H]2C[C@@H]1CN2C(=O)c1cnn(C2CCC2)c1C1=Cc2cc(OC)ccc2-c2c(C3CCCCC3)c3ccc(C(=O)NS(=O)(=O)C(C)C)cc3n2C1` is 1.7 to 500 nM.
Regarding `COc1ccc2c(c1)C=C(c1c(C(=O)N3CC[C@H]4C[C@H]43)cnn1C1CCC1)Cn1c-2c(C2CCCCC2)c2ccc(C(=O)NS(=O)(=O)C(C)C)cc21`, the IC50 lay within 1.7 to 500 nM.
In the case of `COc1ccc2c(c1)C=C(c1c(C(=O)N3CCC(F)(F)CC3)cnn1C1CCC1)Cn1c-2c(C2CCCCC2)c2ccc(C(=O)NS(=O)(=O)C(C)C)cc21`, the 50% inhibitory concentration (IC50) lay within 1.7 to 500 nM.
The same measure, in the same setting: the figure for `COc1ccc2c(c1)C=C(c1c(C(=O)N3C4CCC3CC4)cnn1C1CCC1)Cn1c-2c(C2CCCCC2)c2ccc(C(=O)NS(=O)(=O)C(C)C)cc21` is 1.7 to 500 nM; for `COCCN(CCOC)C(=O)c1cnn(C2CCC2)c1C1=Cc2cc(OC)ccc2-c2c(C3CCCCC3)c3ccc(C(=O)NS(=O)(=O)C(C)C)cc3n2C1` it is 1.7 to 500 nM.
In turn, `COCCN(C(=O)c1cnn(C2CCC2)c1C1=Cc2cc(OC)ccc2-c2c(C3CCCCC3)c3ccc(C(=O)NS(=O)(=O)C(C)C)cc3n2C1)C(C)C` displayed an IC50 of 1.7 to 500 nM.
For `COc1ccc2c(c1)C=C(c1c(C(=O)N3CC(F)(F)C3)cnn1C1CCC1)Cn1c-2c(C2CCCCC2)c2ccc(C(=O)NS(=O)(=O)C(C)C)cc21`, the IC50 was in the range of 1.7 to 500 nM.
Consider `COc1ccc2c(c1)C=C(c1c(C(=O)N3C4CCCCC3CCC4)cnn1C1CCC1)Cn1c-2c(C2CCCCC2)c2ccc(C(=O)NS(=O)(=O)C(C)C)cc21`, for which the IC50 was 1.7 to 500 nM.
With `COc1ccc2c(c1)C=C(c1c(C(=O)N3CC4CCC3C4)cnn1C1CCC1)Cn1c-2c(C2CCCCC2)c2ccc(C(=O)NS(=O)(=O)C(C)C)cc21` (stereo not drawn), the IC50 fell in the range of 1.7 to 500 nM.
On to `COc1ccc2c(c1)C=C(c1c(C(=O)N3C[C@@H]4C[C@H]3CN4)cnn1C1CCC1)Cn1c-2c(C2CCCCC2)c2ccc(C(=O)NS(=O)(=O)C(C)C)cc21`, for which the concentration for half-maximal inhibition (IC50) lay within 1.7 to 500 nM.
The same measure, in the same setting: the figure for `COc1ccc2c(c1)C=C(c1ncn(C3CC3)c1C(=O)N1CCOCC1)Cn1c-2c(C2CCCCC2)c2ccc(C(=O)NS(=O)(=O)C(C)C)cc21` is 1.7 to 500 nM; for `COc1ccc2c(c1)C=C(c1ncn(C3CCC3)c1C(=O)N1CCOCC1)Cn1c-2c(C2CCCCC2)c2ccc(C(=O)NS(=O)(=O)C(C)C)cc21` it is 1.7 to 500 nM.
With `CCN1CC2CC1CN2C(=O)c1c(C2=Cc3cc(OC)ccc3-c3c(C4CCCCC4)c4ccc(C(=O)NS(=O)(=O)C(C)C)cc4n3C2)ncn1C1CCC1` (stereo not drawn), the IC50 lay in the range of 1.7 to 500 nM.
As to `COc1ccc2c(c1)C=C(c1ncn(C3CCC3)c1C(=O)N1C[C@@H](C)O[C@@H](C)C1)Cn1c-2c(C2CCCCC2)c2ccc(C(=O)NS(=O)(=O)C(C)C)cc21`, the IC50 lay within 1.7 to 500 nM.
`COc1ccc2c(c1)C=C(c1c(C(=O)N3C[C@@H]4C[C@H]3CN4C)cnn1C1CCC1)Cn1c-2c(C2CCCCC2)c2ccc(C(=O)NS(=O)(=O)C(C)C)cc21` registered an IC50 of 1.7 to 500 nM.
Turning to `COc1ccc2c(c1)C=C(c1c(C(=O)N3C[C@@H]4C[C@H]3CN4)c(C)nn1C1CCC1)Cn1c-2c(C2CCCCC2)c2ccc(C(=O)NS(=O)(=O)C(C)C)cc21`, the IC50 was < 1.7 nM.
For `COC[C@H]1CN(C(=O)c2cnn(C3CCC3)c2C2=Cc3cc(OC)ccc3-c3c(C4CCCCC4)c4ccc(C(=O)NS(=O)(=O)C(C)C)cc4n3C2)CCO1`, the IC50 was < 1.7 nM.

Staying with this assay, now noted: exact value.
For `COc1ccc2c(c1)C=C(c1c(C(=O)N3C4CCCCC3CCC4)cnn1C1CCC1)Cn1c-2c(C2CCCCC2)c2ccc(C(=O)NS(=O)(=O)C(C)C)cc21`, the concentration for half-maximal inhibition (IC50) stood at 7 nM.
In turn, `COc1ccc2c(c1)C=C(c1ncn(C3CC3)c1C(=O)N1CCOCC1)Cn1c-2c(C2CCCCC2)c2ccc(C(=O)NS(=O)(=O)C(C)C)cc21` had a half-maximal inhibitory concentration (IC50) of 2.4 nM.
For `COc1ccc2c(c1)C=C(c1ncn(C3CCC3)c1C(=O)N1CCOCC1)Cn1c-2c(C2CCCCC2)c2ccc(C(=O)NS(=O)(=O)C(C)C)cc21`, the IC50 came out at 1.8 nM.
For the molecule `COC[C@H]1CN(C(=O)c2cnn(C3CCC3)c2C2=Cc3cc(OC)ccc3-c3c(C4CCCCC4)c4ccc(C(=O)NS(=O)(=O)C(C)C)cc4n3C2)CCO1`, the IC50 was < 1.7 nM.

The subject of another assay is HCV replicon. Kind of assay: HCV replicon assay (FRET or luciferase reporter). As to conditions: Hepatitis C virus, one of the methods described, class symbol. It is filed as cell-based. In short, it runs like this: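 HCV replicon Huh-7 cells were exposed to titrated compound at 37 °C, with Alamar blue as a cytotoxicity read. Replication was measured by NS3 cleavage of an EDANS/DABCYL FRET peptide (20 μM, 340/490 nm kinetic read) or by Renilla luciferase, with background from high-dose protease inhibitor wells. EC50 was taken as 50% signal reduction; a 384-well format used 3.0×10^3 cells/well, 0.5% DMSO and 3 days.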
A general note: Replicon systems follow genome replication, usually without infectious particles.
One may read the EC50 as the concentration giving half of the maximal effect. For the molecule `COc1ccc2c(c1)C=C(c1c(C(=O)N3CC4CCC(C3)N4C)c(C)nn1C1CCC1)Cn1c-2c(C2CCCCC2)c2ccc(C(=O)NS(=O)(=O)C(C)C)cc21`, the half-maximal effective concentration (EC50) was in the range of 1.7 to 500 nM.
`COc1ccc2c(c1)C=C(c1c(C(=O)N3C[C@@H]4C[C@H]3CN4C)c(C)nn1C1CCC1)Cn1c-2c(C2CCCCC2)c2ccc(C(=O)NS(=O)(=O)C(C)C)cc21`: the EC50 lay in the range of 1.7 to 500 nM.
In turn, `COc1ccc2c(c1)C=C(c1c(C(=O)N3C[C@@H]4C[C@H]3CN4CC3CC3)c(C)nn1C1CCC1)Cn1c-2c(C2CCCCC2)c2ccc(C(=O)NS(=O)(=O)C(C)C)cc21` gave an EC50 of 1.7 to 500 nM.
On the same count and under the same terms, the same measure for `CCN1C[C@H]2C[C@@H]1CN2C(=O)c1cnn(C2CCC2)c1C1=Cc2cc(OC)ccc2-c2c(C3CCCCC3)c3ccc(C(=O)NS(=O)(=O)C(C)C)cc3n2C1`: 1.7 to 500 nM; for `COc1ccc2c(c1)C=C(c1c(C(=O)N3CC[C@H]4C[C@H]43)cnn1C1CCC1)Cn1c-2c(C2CCCCC2)c2ccc(C(=O)NS(=O)(=O)C(C)C)cc21`: 1.7 to 500 nM; for `COc1ccc2c(c1)C=C(c1c(C(=O)N3CCC(F)(F)CC3)cnn1C1CCC1)Cn1c-2c(C2CCCCC2)c2ccc(C(=O)NS(=O)(=O)C(C)C)cc21`: 1.7 to 500 nM.
Still for that read-out and setting: the figure for `COc1ccc2c(c1)C=C(c1c(C(=O)N3C4CCC3CC4)cnn1C1CCC1)Cn1c-2c(C2CCCCC2)c2ccc(C(=O)NS(=O)(=O)C(C)C)cc21` is 1.7 to 500 nM.
For the molecule `COCCN(CCOC)C(=O)c1cnn(C2CCC2)c1C1=Cc2cc(OC)ccc2-c2c(C3CCCCC3)c3ccc(C(=O)NS(=O)(=O)C(C)C)cc3n2C1`, the EC50 was 1.7 to 500 nM.
Molecule `COCCN(C(=O)c1cnn(C2CCC2)c1C1=Cc2cc(OC)ccc2-c2c(C3CCCCC3)c3ccc(C(=O)NS(=O)(=O)C(C)C)cc3n2C1)C(C)C` gave an EC50 of 1.7 to 500 nM.
For `COc1ccc2c(c1)C=C(c1c(C(=O)N3CC(F)(F)C3)cnn1C1CCC1)Cn1c-2c(C2CCCCC2)c2ccc(C(=O)NS(=O)(=O)C(C)C)cc21`, the EC50 lay within 1.7 to 500 nM.
On to `COc1ccc2c(c1)C=C(c1c(C(=O)N3C4CCCCC3CCC4)cnn1C1CCC1)Cn1c-2c(C2CCCCC2)c2ccc(C(=O)NS(=O)(=O)C(C)C)cc21`, for which the EC50 lay in the range of 1.7 to 500 nM.
For the molecule `COc1ccc2c(c1)C=C(c1c(C(=O)N3CC4CCC3C4)cnn1C1CCC1)Cn1c-2c(C2CCCCC2)c2ccc(C(=O)NS(=O)(=O)C(C)C)cc21` (stereo not drawn), the EC50 was 1.7 to 500 nM.
Regarding `COc1ccc2c(c1)C=C(c1c(C(=O)N3C[C@@H]4C[C@H]3CN4)cnn1C1CCC1)Cn1c-2c(C2CCCCC2)c2ccc(C(=O)NS(=O)(=O)C(C)C)cc21`, the EC50 was in the range of 1.7 to 500 nM.
Still for that read-out and setting: the figure for `COc1ccc2c(c1)C=C(c1ncn(C3CC3)c1C(=O)N1CCOCC1)Cn1c-2c(C2CCCCC2)c2ccc(C(=O)NS(=O)(=O)C(C)C)cc21` is 1.7 to 500 nM; for `COc1ccc2c(c1)C=C(c1ncn(C3CCC3)c1C(=O)N1CCOCC1)Cn1c-2c(C2CCCCC2)c2ccc(C(=O)NS(=O)(=O)C(C)C)cc21` it is 1.7 to 500 nM; for `CCN1CC2CC1CN2C(=O)c1c(C2=Cc3cc(OC)ccc3-c3c(C4CCCCC4)c4ccc(C(=O)NS(=O)(=O)C(C)C)cc4n3C2)ncn1C1CCC1` (stereo not drawn) it is 1.7 to 500 nM.
`COc1ccc2c(c1)C=C(c1ncn(C3CCC3)c1C(=O)N1C[C@@H](C)O[C@@H](C)C1)Cn1c-2c(C2CCCCC2)c2ccc(C(=O)NS(=O)(=O)C(C)C)cc21`: the EC50 was in the range of 1.7 to 500 nM.
Regarding `COc1ccc2c(c1)C=C(c1c(C(=O)N3C[C@@H]4C[C@H]3CN4C)cnn1C1CCC1)Cn1c-2c(C2CCCCC2)c2ccc(C(=O)NS(=O)(=O)C(C)C)cc21`, the EC50 lay in the range of 1.7 to 500 nM.
Take `COc1ccc2c(c1)C=C(c1c(C(=O)N3C[C@@H]4C[C@H]3CN4)c(C)nn1C1CCC1)Cn1c-2c(C2CCCCC2)c2ccc(C(=O)NS(=O)(=O)C(C)C)cc21`: the EC50 fell in the range of 1.7 to 500 nM.
The molecule `COC[C@H]1CN(C(=O)c2cnn(C3CCC3)c2C2=Cc3cc(OC)ccc3-c3c(C4CCCCC4)c4ccc(C(=O)NS(=O)(=O)C(C)C)cc4n3C2)CCO1` displayed an EC50 of 1.7 to 500 nM.

The same assay, now with this note: Hepatitis C virus, one of the methods described, exact value.
Take `COc1ccc2c(c1)C=C(c1c(C(=O)N3C4CCCCC3CCC4)cnn1C1CCC1)Cn1c-2c(C2CCCCC2)c2ccc(C(=O)NS(=O)(=O)C(C)C)cc21`: the EC50 worked out at 400 nM.
`COc1ccc2c(c1)C=C(c1ncn(C3CC3)c1C(=O)N1CCOCC1)Cn1c-2c(C2CCCCC2)c2ccc(C(=O)NS(=O)(=O)C(C)C)cc21`: a half-maximal response (EC50) required 8.8 nM.
As for `COc1ccc2c(c1)C=C(c1ncn(C3CCC3)c1C(=O)N1CCOCC1)Cn1c-2c(C2CCCCC2)c2ccc(C(=O)NS(=O)(=O)C(C)C)cc21`, the EC50 was found to be 9 nM.
The same measure, in the same setting: the figure for `COC[C@H]1CN(C(=O)c2cnn(C3CCC3)c2C2=Cc3cc(OC)ccc3-c3c(C4CCCCC4)c4ccc(C(=O)NS(=O)(=O)C(C)C)cc4n3C2)CCO1` is 10 nM.
